Patent publication US8877751B2, “Benzothiazolone derivatives” (Merck Patent GmbH, priority 2009, dated 2014)
pIC50: −log10 of the molar value.

Biological target: T1, Met kinase (Homo sapiens, UniProt P08581)
T1 construct: 6His (N); purchased Upstate 14-526; host or cells: Sf21 insect cells (S. frugiperda), baculovirus
Test: Met kinase inhibition (enzyme assay), flashplate method
Assay type: biochemical
From the text: According to the manufacturer's data (Met, active, Upstate, catalogue No. 14-526), Met kinase is expressed for the purposes of protein production in insect cells (Sf21; S. frugiperda) and subsequent affinity-chromatographic purification as “N-terminal 6His-tagged” recombinant human protein in a baculovirus expression vector.
Flashplate Method (Met Kinase)
The test plates used are 96-well Flashplate^R microtitre plates from Perkin Elmer (Cat. No. SMP200). The components of the kinase reaction described below are pipetted into the assay plate. The Met kinase and the substrate poly Ala-Glu-Lys-Tyr, (pAGLT, 6:2:5:1), are incubated for 3 hrs at room temperature with radioactively labelled ^33P-ATP in the presence and absence of test substances in a total volume of 100 μl. The reaction is terminated using 150 μl of a 60 mM EDTA solution. After incubation for a further 30 min at room temperature, the supernatants are filtered off with suction, and the wells are washed three times with 200 μl of 0.9% NaCl solution each time. The measurement of the bound radioactivity is carried out by means of a scintillation measuring instrument (Topcount NXT, Perkin-Elmer).
The full value used is the inhibitor-free kinase reaction. This should be approximately in the range 6000-9000 cpm. The pharmacological zero value used is staurosporin in a final concentration of 0.1 mM. The inhibitory values (IC50) are determined using the RS1_MTS program.
Kinase reaction conditions per well: • 30 μl of assay buffer • 10 μl of substance to be tested in assay buffer with 10% of DMSO • 10 μl of ATP (final concentration 1 μM cold, 0.35 μCi of ^33P-ATP) • 50 μl of Met kinase/substrate mixture in assay buffer; • (10 ng of enzyme/well, 50 ng of pAGLT/well)
Solutions Used: • Assay buffer: • 50 mM HEPES • 3 mM magnesium chloride • 3 μM sodium orthovanadate • 3 mM manganese(II) chloride • 1 mM dithiothreitol (DTT) • pH=7.5 (to be set using sodium hydroxide) • Stop solution: • 60 mM Titriplex III (EDTA) • ^33P-ATP: Perkin-Elmer; • Met kinase: Upstate, Cat. No. 14-526, Stock 1 μg/10 μl; spec. activity 954 U/mg; • Poly-Ala-Glu-Lys-Tyr, 6:2:5:1: Sigma Cat. No. P1152

T1 sequence (P08581 25-1390): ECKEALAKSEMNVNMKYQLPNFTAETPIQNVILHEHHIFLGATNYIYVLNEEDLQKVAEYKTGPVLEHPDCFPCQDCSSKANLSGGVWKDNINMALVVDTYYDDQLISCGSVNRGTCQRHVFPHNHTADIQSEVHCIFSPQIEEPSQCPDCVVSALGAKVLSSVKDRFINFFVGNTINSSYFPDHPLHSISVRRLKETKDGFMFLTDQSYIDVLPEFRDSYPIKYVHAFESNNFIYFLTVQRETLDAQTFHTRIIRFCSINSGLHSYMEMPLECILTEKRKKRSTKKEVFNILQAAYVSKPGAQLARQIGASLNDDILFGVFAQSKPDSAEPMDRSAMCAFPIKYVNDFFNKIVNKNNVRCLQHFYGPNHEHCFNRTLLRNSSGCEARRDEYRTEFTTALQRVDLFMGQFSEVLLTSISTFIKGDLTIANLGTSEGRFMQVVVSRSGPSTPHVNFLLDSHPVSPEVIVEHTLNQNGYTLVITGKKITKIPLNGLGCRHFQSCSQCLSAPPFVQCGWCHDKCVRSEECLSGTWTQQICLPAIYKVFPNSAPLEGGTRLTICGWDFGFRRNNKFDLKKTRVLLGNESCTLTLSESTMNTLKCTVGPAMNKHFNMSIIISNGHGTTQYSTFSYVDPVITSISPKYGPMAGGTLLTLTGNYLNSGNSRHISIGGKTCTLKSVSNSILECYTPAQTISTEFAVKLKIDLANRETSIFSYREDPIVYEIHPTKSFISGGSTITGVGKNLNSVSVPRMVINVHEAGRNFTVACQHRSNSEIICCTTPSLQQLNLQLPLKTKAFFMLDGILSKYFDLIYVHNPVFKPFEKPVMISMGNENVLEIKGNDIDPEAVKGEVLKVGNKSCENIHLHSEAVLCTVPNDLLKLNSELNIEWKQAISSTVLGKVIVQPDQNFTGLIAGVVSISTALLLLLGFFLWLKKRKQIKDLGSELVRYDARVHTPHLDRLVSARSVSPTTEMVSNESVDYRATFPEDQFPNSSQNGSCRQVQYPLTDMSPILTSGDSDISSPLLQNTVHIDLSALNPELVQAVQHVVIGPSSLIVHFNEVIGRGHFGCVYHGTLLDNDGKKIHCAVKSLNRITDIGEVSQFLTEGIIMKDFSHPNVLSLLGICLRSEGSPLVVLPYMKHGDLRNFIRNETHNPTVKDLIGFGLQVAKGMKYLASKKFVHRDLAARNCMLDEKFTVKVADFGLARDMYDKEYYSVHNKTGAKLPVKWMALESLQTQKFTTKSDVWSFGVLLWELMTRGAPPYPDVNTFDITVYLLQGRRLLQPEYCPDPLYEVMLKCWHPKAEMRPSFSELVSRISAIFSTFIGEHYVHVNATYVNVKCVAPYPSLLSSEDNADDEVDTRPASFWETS

Row | SMILES | pIC50
1 | CC(C)(C)OC(=O)N1CCC(COc2cnc(-c3cccc(Cn4c(=O)sc5ccc(C(F)(F)F)cc54)c3)nc2)CC1 [Compound A7, 3-{3-[5-(1-tert-Butoxycarbonylpiperidin-4-ylmethoxy)pyrimidin-2-yl]-benzyl}-5-trifluoromethyl-3H-benzothiazol-2-one] | 6.00 to 8.00
2 | O=c1sc2ccc(C(F)(F)F)cc2n1Cc1cccc(-c2ncc(OCC3CCNCC3)cn2)c1 [Compound A8, 3-{3-[5-(piperidin-4-ylmethoxy)pyrimidin-2-yl]benzyl}-5-trifluoromethyl-3H-benzothiazol-2-one] | 6.00 to 8.00
3 | O=c1sc2ccc(C(F)(F)F)cc2n1Cc1cccc(-c2ncc(-c3cnn(CCN4CCCC4)c3)cn2)c1 [Compound A9, 3-(3-{5-[1-(2-pyrrolidin-1-ylethyl)-1H-pyrazol-4-yl]pyrimidin-2-yl}benzyl)-5-trifluoromethyl-3H-benzothiazol-2-one] | 6.00 to 8.00
4 | CN1CCN(c2cnc(-c3cccc(Cn4c(=O)sc5ccc(C(F)(F)F)cc54)c3)nc2)CC1 [Compound A11, 3-{3-[5-(4-methylpiperazin-1-yl)pyrimidin-2-yl]benzyl}-5-trifluoromethyl-3H-benzothiazol-2-one] | 6.00 to 8.00
5 | Cc1nc(-c2cccc(Cn3c(=O)sc4ccc(Cl)cc43)c2)no1 [Compound A12, 5-chloro-3-[3-(5-methyl-1,2,4-oxadiazol-3-yl)benzyl]-3H-benzothiazol-2-one] | 6.00 to 8.00
6 | CN1CCN(CCCOC(=O)Nc2cccc(Cn3c(=O)sc4ccc(Cl)cc43)c2)CC1 [Compound A13, 3-(4-methylpiperazin-1-yl)propyl [3-(5-chloro-2-oxobenzothiazol-3-ylmethyl)phenyl]carbamate] | 6.00 to 8.00
7 | CCOC(=O)Nc1cccc(Cn2c(=O)sc3ccc(Cl)cc32)c1 [Compound A14, ethyl [3-(5-chloro-2-oxobenzothiazol-3-ylmethyl)phenyl]carbamate] | 6.00 to 8.00

More lines, now with the values ahead:

Row | pIC50 | SMILES
8 | 6.00 to 8.00 | O=c1sc2ccc(C(F)(F)F)cc2n1Cc1cccc(-c2ncc(OCCN3CCOCC3)cn2)c1 [Compound A1, 3-{3-[5-(2-morpholin-4-ylethoxy)pyrimidin-2-yl]benzyl}-5-trifluoromethyl-3H-benzothiazol-2-one]
9 | 6.00 to 8.00 | O=c1sc2ccc(Cl)cc2n1Cc1cccc(-c2ncc(OCCN3CCOCC3)cn2)c1 [Compound A2, 5-Chloro-3-{3-[5-(2-morpholin-4-ylethoxy)pyrimidin-2-yl]benzyl}-3H-benzothiazol-2-one]
10 | 6.00 to 8.00 | CC(=O)c1ccc2c(c1)sc(=O)n2Cc1cccc(-c2ncc(OCCN3CCOCC3)cn2)c1 [Compound A3, 6-Acetyl-3-{3-[5-(2-morpholin-4-ylethoxy)pyrimidin-2-yl]benzyl}-3H-benzothiazol-2-one]
11 | 6.00 to 8.00 | CCC(=O)c1ccc2c(c1)sc(=O)n2Cc1cccc(-c2ncc(OCCN3CCOCC3)cn2)c1 [Compound A3a, 3-{3-[5-(2-Morpholin-4-ylethoxy)pyrimidin-2-yl]benzyl}-6-propionyl-3H-benzothiazol-2-one]
12 | 6.00 to 8.00 | O=c1sc2ccc(Br)cc2n1Cc1cccc(-c2ncc(OCCN3CCOCC3)cn2)c1 [Compound A4, 5-Bromo-3-{3-[5-(2-morpholin-4-ylethoxy)pyrimidin-2-yl]benzyl}-3H-benzothiazol-2-one]
13 | 6.00 to 8.00 | CN(C)CCCOc1cnc(-c2cccc(Cn3c(=O)sc4ccc(C(F)(F)F)cc43)c2)nc1 [Compound A5, 3-{3-[5-(3-dimethylaminopropoxy)pyrimidin-2-yl]benzyl}-5-trifluoromethyl-3H-benzothiazol-2-one]
14 | 6.00 to 8.00 | CN1CCC(COc2cnc(-c3cccc(Cn4c(=O)sc5ccc(C(F)(F)F)cc54)c3)nc2)CC1 [Compound A6, 3-{3-[5-(1-Methylpiperidin-4-ylmethoxy)pyrimidin-2-yl]benzyl}-5-trifluoromethyl-3H-benzothiazol-2-one]
15 | 6.00 to 8.00 | Cn1cc(-c2ccc3sc(=O)n(Cc4cccc(-c5ncc(OCCN6CCOCC6)cn5)c4)c3c2)cn1 [Compound A10, 5-(1-methyl-1H-pyrazol-4-yl)-3-{3-[5-(2-morpholin-4-ylethoxy)pyrimidin-2-yl]benzyl}-3H-benzothiazol-2-one]
